Measured values from patent US9113629B2, “4-amino-6-(4-substituted-phenyl)-picolinates and 6-amino-2-(4-substituted-phenyl)-pyrimidine-4-carboxylates and their use as herbicides” (DOW AGROSCIENCES LLC, priority 2013, dated 2015).
Like-named read-outs stand apart in the source and are kept apart here.

Experiments:
[1] = test system: Key Broadleaf Weed and Crop Species; assay: Post-emergent Test II herbicidal activity (Table 5); format: in vivo; conditions: post-emergence, 336 h, 14 days after application; for pest or weed control at 70 g/ha: application rate 70 g ai/ha; for pest or weed control at 140 g/ha: application rate 140 g ai/ha
How it was run: (§1)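 Greenhouse-grown plants at first or second true leaf stage were sprayed post-emergence with compound in acetone/DMSO-based aqueous spray containing crop oil concentrate and surfactant, at 187 L/ha, highest rate plus ½× to 1/16× dilutions. After 14 d, injury was scored visually versus untreated plants, 0 (none) to 100% (complete kill).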

[2] = test system: Key Grass and Sedge Weeds as well as Grass Crops; assay: Post-emergent Test II herbicidal activity (Table 6); format: in vivo; conditions: post-emergence, 336 h; for pest or weed control at 70 g/ha: 70 g ai/ha; for pest or weed control at 140 g/ha: 140 g ai/ha
How it was run: as §1

[3] = ABUTH: velvetleaf (Abutilon theophrasti), read-out: Visual Growth Reduction (%) 14 Days After Application, ABUTH
[4] = AMARE: redroot pigweed (Amaranthus retroflexus), read-out: Visual Growth Reduction (%) 14 Days After Application, AMARE
[5] = BRSNN: oilseed-rape, canola (Brassica napus), read-out: Visual Growth Reduction (%) 14 Days After Application, BRSNN
[6] = CHEAL: lambsquarters (Chenopodium album), read-out: Visual Growth Reduction (%) 14 Days After Application, CHEAL
[7] = EPHHL: wild poinsettia (Euphorbia heterophylla), read-out: Visual Growth Reduction (%) 14 Days After Application, EPHHL
[8] = HELAN: sunflower (Helianthus annuus), read-out: Visual Growth Reduction (%) 14 Days After Application, HELAN
[9] = VIOTR: wild pansy (Viola tricolor), read-out: Visual Growth Reduction (%) 14 Days After Application, VIOTR
[10] = CYPES: yellow nutsedge (Cyperus esculentus), read-out: Visual Growth Reduction (%) 14 Days After Application, CYPES
[11] = DIGSA: crabgrass (Digitaria sanguinalis), read-out: Visual Growth Reduction (%) 14 Days After Application, DIGSA
[12] = ECHCG: barnyardgrass (Echinochloa crus-galli), read-out: Visual Growth Reduction (%) 14 Days After Application, ECHCG
[13] = ORYSA: rice (Oryza sativa), crop, read-out: Visual Growth Reduction (%) 14 Days After Application, ORYSA
[14] = SETFA: giant foxtail (Setaria faberi), read-out: Visual Growth Reduction (%) 14 Days After Application, SETFA
[15] = SORVU: grain sorghum (Sorghum vulgare), read-out: Visual Growth Reduction (%) 14 Days After Application, SORVU
[16] = TRZSS (wheat, Triticum aestivum), crop, read-out: Visual Growth Reduction (%) 14 Days After Application, TRZSS
[17] = ZEAMX: maize, corn (Zea mays), crop, read-out: Visual Growth Reduction (%) 14 Days After Application, ZEAMX

Q: With COC(=O)c1nc(-c2ccc(F)c(F)c2F)c(F)c(N)c1Cl [Compound 186] as the molecule, how does the pest or weed control at 70 g/ha [1, 3] read?
A: 95 to 100%

Q: And the pest or weed control at 140 g/ha [1, 3]?
A: 95 to 100%

Q: And the pest or weed control at 70 g/ha [1, 4]?
A: 95 to 100%

Q: What about the pest or weed control at 140 g/ha [1, 4] of the same molecule?
A: 95 to 100%

Q: What about the pest or weed control at 70 g/ha [1, 5] of the same molecule?
A: 85 to 94%

Q: And the pest or weed control at 140 g/ha [1, 5]?
A: 95 to 100%

Q: What about the pest or weed control at 70 g/ha [1, 6] of the same molecule?
A: 95 to 100%

Q: What about the pest or weed control at 140 g/ha [1, 6] of the same molecule?
A: 95 to 100%

Q: What about the pest or weed control at 70 g/ha [1, 7] of the same molecule?
A: 95 to 100%

Q: And the pest or weed control at 140 g/ha [1, 7]?
A: 95 to 100%

Q: What about the pest or weed control at 70 g/ha [1, 8] of the same molecule?
A: 85 to 94%

Q: What about the pest or weed control at 140 g/ha [1, 8] of the same molecule?
A: 95 to 100%

Q: What about the pest or weed control at 70 g/ha [1, 9] of the same molecule?
A: 85 to 94%

Q: And the pest or weed control at 140 g/ha [1, 9]?
A: 95 to 100%

Q: And the pest or weed control at 70 g/ha [2, 10]?
A: 85 to 94%

Q: What about the pest or weed control at 140 g/ha [2, 10] of the same molecule?
A: 85 to 94%

Q: And the pest or weed control at 70 g/ha [2, 11]?
A: 45 to 59%

Q: What about the pest or weed control at 140 g/ha [2, 11] of the same molecule?
A: 60 to 74%

Q: What about the pest or weed control at 70 g/ha [2, 12] of the same molecule?
A: 85 to 94%

Q: What about the pest or weed control at 140 g/ha [2, 12] of the same molecule?
A: 95 to 100%

Q: What about the pest or weed control at 70 g/ha [2, 13] of the same molecule?
A: 0 to 29%

Q: What about the pest or weed control at 140 g/ha [2, 13] of the same molecule?
A: 30 to 44%

Q: And the pest or weed control at 70 g/ha [2, 14]?
A: 0 to 29%

Q: What about the pest or weed control at 140 g/ha [2, 14] of the same molecule?
A: 60 to 74%

Q: And the pest or weed control at 70 g/ha [2, 15]?
A: 60 to 74%

Q: And the pest or weed control at 140 g/ha [2, 15]?
A: 75 to 84%

Q: What about the pest or weed control at 70 g/ha [2, 16] of the same molecule?
A: 60 to 74%

Q: What about the pest or weed control at 140 g/ha [2, 16] of the same molecule?
A: 60 to 74%

Q: And the pest or weed control at 70 g/ha [2, 17]?
A: 75 to 84%

Q: And the pest or weed control at 140 g/ha [2, 17]?
A: 85 to 94%

Q: What about the melting point of the same molecule?
A: 147 to 148 °C

Q: Which pest or weed control at 70 g/ha [1, 3] does the source give for COC(=O)c1ccc(-c2nc(C(=O)OC)c(Cl)c(N)c2F)cc1 [Compound 190, methyl 4-amino-3-chloro-5-fluoro-6-(4-(methoxycarbonyl)phenyl)picolinate] here?
A: 0 to 29%

Q: What about the pest or weed control at 140 g/ha [1, 3] of the same molecule?
A: 0 to 29%

Q: What about the pest or weed control at 70 g/ha [1, 4] of the same molecule?
A: 0 to 29%

Q: What about the pest or weed control at 140 g/ha [1, 4] of the same molecule?
A: 30 to 44%

Q: And the pest or weed control at 70 g/ha [1, 5]?
A: 0 to 29%

Q: What about the pest or weed control at 140 g/ha [1, 5] of the same molecule?
A: 0 to 29%

Q: And the pest or weed control at 70 g/ha [1, 6]?
A: 60 to 74%

Q: What about the pest or weed control at 140 g/ha [1, 6] of the same molecule?
A: 30 to 44%

Q: And the pest or weed control at 70 g/ha [1, 7]?
A: 0 to 29%

Q: And the pest or weed control at 140 g/ha [1, 7]?
A: 0 to 29%

Q: What about the pest or weed control at 70 g/ha [1, 8] of the same molecule?
A: 0 to 29%

Q: What about the pest or weed control at 140 g/ha [1, 8] of the same molecule?
A: 0 to 29%

Q: And the pest or weed control at 70 g/ha [1, 9]?
A: 0 to 29%

Q: And the pest or weed control at 140 g/ha [1, 9]?
A: 0 to 29%

Q: What about the pest or weed control at 70 g/ha [2, 10] of the same molecule?
A: 0 to 29%

Q: What about the pest or weed control at 140 g/ha [2, 10] of the same molecule?
A: 0 to 29%

Q: What about the pest or weed control at 70 g/ha [2, 11] of the same molecule?
A: 0 to 29%

Q: And the pest or weed control at 140 g/ha [2, 11]?
A: 0 to 29%

Q: And the pest or weed control at 70 g/ha [2, 12]?
A: 0 to 29%

Q: What about the pest or weed control at 140 g/ha [2, 12] of the same molecule?
A: 0 to 29%

Q: And the pest or weed control at 70 g/ha [2, 13]?
A: 0 to 29%

Q: And the pest or weed control at 140 g/ha [2, 13]?
A: 0 to 29%

Q: What about the pest or weed control at 70 g/ha [2, 14] of the same molecule?
A: 0 to 29%

Q: What about the pest or weed control at 140 g/ha [2, 14] of the same molecule?
A: 0 to 29%

Q: What about the pest or weed control at 70 g/ha [2, 15] of the same molecule?
A: 0 to 29%

Q: What about the pest or weed control at 140 g/ha [2, 15] of the same molecule?
A: 0 to 29%

Q: What about the pest or weed control at 70 g/ha [2, 16] of the same molecule?
A: 0 to 29%

Q: And the pest or weed control at 140 g/ha [2, 16]?
A: 0 to 29%

Q: What about the pest or weed control at 70 g/ha [2, 17] of the same molecule?
A: 0 to 29%

Q: And the pest or weed control at 140 g/ha [2, 17]?
A: 0 to 29%

Q: And the melting point?
A: 163 to 165 °C
